# Source: patent US7553821B2, “Methods for selectively modulating survivin apoptosis pathways” (Yale University, priority 2000, dated 2009)
# System: HeLa cells
# Assay: DNA content by propidium iodide staining and flow cytometry in transfected HeLa cells
# Type: cell-based
# Conditions: gated GFP-expressing cells, 48 h after transfection
# Procedure: HeLa cells were transfected with GFP-survivin(T34A) in the presence or in the absence of 20 μM of the caspase inhibitor, Z-VAD-fmk. Gated GFP-expressing cells were analyzed 48 h after transfection for DNA content by propidium iodide staining and flow cytometry. The percentages of apoptotic cells with sub-G1 (hypodiploid) […] DNA content are indicated. Apoptotic HeLa cells in GFP-vector transfectants were 8%. Data are representative of one experiment out of at least three independent determinations.
# Transfection experiments. For transient transfection, HeLa cells in C-6 tissue culture plates (Costar, Cambridge, Mass.) at ˜60-70% confluency, were incubated in 1 ml of serum-free OptiMEM medium (Life Technologies, Gaithersburg, Md.) for 20 min, and transfected with 2.5 μg of the various plasmid cDNAs plus 9 μl Lipofectamine (Life Technologies). After a 5 h incubation at 37° C., the mixture was aspirated and substituted with complete growth medium for 48-72 h. To generate stable YUSAC-2 transfectants, a survivin(T34A) cDNA was inserted into the HindIII-SpeI sites of the pTet-splice vector (Dr. D. Schatz, Yale University School of Medicine), downstream of the regulatory sequences of the Tet-resistance operon (TetO). […] Gated GFP-expressing cells were analyzed for DNA content by flow cytometry on a FACSort (Becton Dickinson, San Jose, Calif.) using a Cell Quest software. […]
substance,measurement,value
"survivin(T34A): dominant-negative, non-phosphorylatable survivin mutant with Thr34→Ala substitution, expressed from transfected cDNA (also HA- or GFP-tagged)",hypodiploid (sub-G1) DNA content,resulted in the appearance of HeLa cells with hypodiploid (sub-G1) DNA content
